Values of other authors in patent publication US6797704B2, “Systemic delivery of compounds through non-invasive bladder administration” (The Johns Hopkins University, priority 2000, dated 2004).

Key:
[1] = men
murine lung tumors = details: co-injection with naked DNA; from more than 250

| systemic absorption following intravesical administration [1] | Molecule | number of primary lung metastases (murine lung tumors) |
| --- | --- | --- |
| minimal | COc1cccc2c1C(=O)c1c(O)c3c(c(O)c1C2=O)C[C@@](O)(C(=O)CO)C[C@@H]3O[C@H]1C[C@H](N)[C@H](O)[C@H](C)O1 [doxorubicin] |  |
|  | recombinant murine interleukin-12: cytokine co-injected with naked DNA in a literature lung tumor study (protein, UniProt P43431 23-215; P43432 23-335, looked up) Interleukin-12 subunit alpha: RVIPVSGPARCLSQSRNLLKTTDDMVKTAREKLKHYSCTAEDIDHEDITRDQTSTLKTCLPLELHKNESCLATRETSSTTRGSCLPPQKTSLMMTLCLGSIYEDLKMYQTEFQAINAALQNHNHQQIILDKGMLVAIDELMQSLNHNGETLRQKPPVGEADPYRVKMKLCILLHAFSTRVVTINRVMGYLSSA Interleukin-12 subunit beta: MWELEKDVYVVEVDWTPDAPGETVNLTCDTPEEDDITWTSDQRHGVIGSGKTLTITVKEFLDAGQYTCHKGGETLSHSHLLLHKKENGIWSTEILKNFKNKTFLKCEAPNYSGRFTCSWLVQRNMDLKFNIKSSSSSPDSRAVTCGMASLSAEKVTLDQRDYEKYSVSCQEDVTCPTAEETLPIELALEARQQNKYENYSTSFFIRDIIKPDPPKNLQMKPLKNSQVEVSWEYPDSWSTPHSYFSLKFFVRIQRKKEKMKETEEGCNQKGAFLVEKTSTEVQCKGGNVCVQAQDRYYNSSCSKWACVPCRVRS | around 10 |
